Target: T1, SHIP1 (Mus musculus, UniProt Q9ES52)
T1 construct: The asterisk in lanes 1 and 3 indicates the ˜145 kD full-length SHIP protein; His tag (C); made in house; host or cells: E. coli Rosetta-Gami 2 (DE3) pLys
T1 sequence (Q9ES52 1-1191): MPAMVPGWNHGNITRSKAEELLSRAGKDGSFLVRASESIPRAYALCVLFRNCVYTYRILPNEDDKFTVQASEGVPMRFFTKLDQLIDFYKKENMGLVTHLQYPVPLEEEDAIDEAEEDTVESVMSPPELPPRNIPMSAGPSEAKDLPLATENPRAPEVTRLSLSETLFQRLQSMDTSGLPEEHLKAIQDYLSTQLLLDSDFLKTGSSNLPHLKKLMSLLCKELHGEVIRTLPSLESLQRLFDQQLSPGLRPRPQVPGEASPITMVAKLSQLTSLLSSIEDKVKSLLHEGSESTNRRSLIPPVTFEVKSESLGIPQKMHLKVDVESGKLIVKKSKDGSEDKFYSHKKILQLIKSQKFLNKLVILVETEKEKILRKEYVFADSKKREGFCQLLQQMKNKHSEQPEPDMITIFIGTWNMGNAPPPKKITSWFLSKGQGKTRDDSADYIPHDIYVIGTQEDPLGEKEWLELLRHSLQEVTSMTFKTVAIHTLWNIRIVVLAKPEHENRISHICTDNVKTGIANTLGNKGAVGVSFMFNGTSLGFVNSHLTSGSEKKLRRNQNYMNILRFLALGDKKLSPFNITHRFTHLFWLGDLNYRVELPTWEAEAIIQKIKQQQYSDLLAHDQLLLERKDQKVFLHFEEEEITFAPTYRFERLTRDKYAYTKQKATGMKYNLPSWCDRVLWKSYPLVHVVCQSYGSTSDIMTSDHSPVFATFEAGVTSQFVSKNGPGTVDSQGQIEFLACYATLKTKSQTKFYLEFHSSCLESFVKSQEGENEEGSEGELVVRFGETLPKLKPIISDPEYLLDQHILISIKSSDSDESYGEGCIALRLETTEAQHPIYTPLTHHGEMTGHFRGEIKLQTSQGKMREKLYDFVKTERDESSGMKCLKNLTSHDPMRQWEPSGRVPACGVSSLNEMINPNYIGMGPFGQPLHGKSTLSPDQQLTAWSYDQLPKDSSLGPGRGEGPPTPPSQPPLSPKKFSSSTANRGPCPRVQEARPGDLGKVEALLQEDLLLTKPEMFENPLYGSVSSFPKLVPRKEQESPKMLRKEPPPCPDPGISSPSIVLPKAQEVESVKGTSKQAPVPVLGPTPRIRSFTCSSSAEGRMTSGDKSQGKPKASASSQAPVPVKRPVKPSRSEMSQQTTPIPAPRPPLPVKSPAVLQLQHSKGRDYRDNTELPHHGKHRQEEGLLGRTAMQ
Assay: Fluorescence polarization (FP) assay of SHIP1 enzymatic activity
Assay type: biochemical
Conditions: for SHIP inhibitory activity in FP assay: confirmatory FP assay of screening hits
Text: SHIP is detectable in this expression system as a ˜145 kD protein (FIG. 1a, lane 1). Because of an in-frame Histidine (His) tag on the COOH terminus of SHIP, it can then be purified from E. coli lysates by FPLC over a Ni-containing resin. (FIG. 1a, lane 3). Purified SHIP was routinely obtained in sufficient quantities, using this E. coli expression system and FPLC purification, to conduct high-throughput screening (HTS) of chemical libraries for compounds that inhibit SHIP activity. However, prior to screening, a fluorescence polarization (FP) assay that detects SHIP activity in either a 96- or […] format, seen in FIG. 1b, screen was established. SHIP generates PI(3,4)P2 from its PI(3,4,5)P3 substrate. In the FP assay enzymatic generation of PI(3,4)P2 by SHIP reduces polarized fluorescence (mP) because the fluorescent PI(3,4)P2 “probe” is displaced from a detector protein that binds specifically to PI(3,4)P2. The FP assay is highly specific for SHIP activity in these lysates. No significant 5′-inositol phosphatase activity was detected in E. coli lysates harboring an ‘empty’ pet24b expression vector insert when FPLC fractions where SHIP typically elutes with the imidazole step gradient are analyzed in the FP assay (FIG. 1c).
After preparing purified SHIP and establishing the FP assay, two different chemical libraries, comprising a total of ˜2100 different chemical compounds, were screened. Seventeen compounds capable of inhibiting SHIP activity at μM concentrations were identified in this screen. The compounds were verified for SHIP activity inhibition by repeating the FP assay with the compounds obtained from their respective wells in the replicates of the masterplates for these libraries FIGS. 2-6).
A fluorescence polarization (FP) assay to detect and quantify SHIP2 activity has been previously described [Drees B E, et al., Comb Chem High Throughput Screen (2003) 6(4):321-330], but no assay has been described for the detection of SHIP1. A fluorescence polarization (FP) assay was developed to detect the activity of recombinant SHIP1 (see FIGS. 15a and b) and the FP assay was utilized as a rapid screen to detect compounds in chemical libraries that have inhibitory activity against SHIP1. This screen identified 3α-aminocholestane as a potent inhibitor of SHIP1 enzymatic activity (FIG. 15c). […] This high degree of selectivity could be important, since loss of PTEN function promotes malignancy in parenchymal and hematopoietic tissues. [Yuan T L & Cantley L C Oncogene (2008) 27(41):5497-5510; Zhang J, et al., Nature (2006) 441(7092):518-522; Yilmaz O H, et al., Nature (2006) 441(7092):475-482]
Assay of SHIP1 enzymatic activity: A fluorescent polarization (FP) assay that detects the 5′-inositol phosphatase activity of SHIP1 was developed based on a previously established protocol [Drees B E, et al., Comb Chem High Throughput Screen (2003) 6(4):321-330] and was obtained from Echelon Biosciences (Salt Lake City, USA). Modifications of the protocol included the application of SHIP1 in the assay and an increase in the concentration of MgCl2 to […] to maximize the activity of SHIP1 in this assay. Each enzymatic reaction was performed in a 96 well working plate and added in the following order and concentration: Recombinant SHIP1 (0.1 μg) in PBS+20 mM MgCl2, 100 μM of each individual compound from the NCI Diversity Set and then PI(3,4,5)P3 substrate diluted 1:10 in H2O. The enzymatic reaction was incubated for 30 min at room temperature. The detector, reaction mixture and probe were then combined according to the SHIP2 protocol. Malachite Green Phosphatase Assay Kit was obtained from Echelon Biosciences (Salt Lake City, USA). Assays for SHIP2 were performed according to the manufacturer's protocol. The concentration of SHIP1 and SHIP2 per reaction mixture was […]. PTEN was used at the concentration recommended by the manufacturer.

Compound	SHIP inhibitory activity in FP assay	SHIP inhibitory activity in FP assay (listed as NSC 13480)	concentration with detectable inhibitory activity against SHIP1 (0.1 μg of recombinant SHIP1, FP assay) [µM]	inhibition of SHIP1 activity (at 100 μM in the FP assay)	SHIP inhibitory activity in FP assay (listed as NSC 23922)
OC(c1cc(-c2ccccc2)nc2c1ccc1ccccc12)C1CCCCN1 (stereo not drawn) [NSC13480, (2-phenylbenzo[h]quinolin-4-yl)-piperidin-2-ylmethanol]	inhibit both SHIP1 and SHIP2 enzymatic activity	SHIP inhibitory activity			
CC(C)CCC[C@@H](C)[C@H]1CC[C@H]2[C@@H]3CC[C@H]4C[C@H](N)CC[C@]4(C)[C@H]3CC[C@]12C [NSC23922, (3R,5S,8R,9S,10S,13R,14S,17R)-10,13-dimethyl-17-[(2R)-6-methylheptan-2-yl]-2,3,4,5,6,7,8,9,11,12,14,15,16,17-tetradecahydro-1H-cyclopenta[a]phenanthren-3-amine]	inhibit both SHIP1 and SHIP2 enzymatic activity		2	inhibits SHIP1 activity	SHIP inhibitory activity

From patent US9006221B2, “Method of modulating ship activity” (H. Lee Moffitt Cancer Center and Reserach Institute, Inc., priority 2008, dated 2015)
